Converted amounts (≈) assume the structure as drawn. Like-named read-outs stand apart in the source and are kept apart here.
Assays:
MDA-MB-231 [1] = experiment: Sulforhodamine B antiproliferative assay, 72 h, normal and hypoxia; format: cell-based, human; details: 72-hour exposition; for IC50 [µg/ml] MDA-MB-231 hypoxia: hypoxia (<1% of oxygen); for IC50 [µg/ml] MDA-MB-231 normal: normal (21% of oxygen)
Method: (§1) Anticancer activity of PDI A1-inhibitors has been also tested in vitro in antiproliferative essay in normoxic and hypoxic conditions as well in estrogen-stimulated cancer cells. In the experiment, cells were seeded on 96-well plates (Sarstedt, Germany) in appropriate culture medium at a density of 10^5 cells/mL 24 h before adding the tested compounds. Cells were treated with each compound in four concentrations in the range 0.1-100 ug/mL. […] After 72 h of compound treatment at 37° C., 5 % CO2 humid atmosphere and in wo different oxygen level conditions: 21% - normal and <1% - hypoxia. In some experiments, the MDA-MB-231 and MCF-7 cells were seeded with or without 200 nM estradiol and after 24 h the tested compounds were added. A previously described sulforhodamine B antiproliferative assay was used with minor modifications (Skehan P et al., 1990). Briefly, cells were fixed with 50 µL/well of 50% (w/v) trichloroacetic acid (Avantor Performance Materials, Gliwice, Poland). After 1 h incubation, plates were washed several times with tap water and 50 µL of 0.4% (w/v) solution of sulforhodamine B (Sigma-Aldrich, Germany) in 1% (v/v) acetic acid (Avantor Performance Materials, Gliwice, Poland) was added to each well. After 30 min incubation at room temperature, unbound dye was washed out with 1% (v/v) acetic acid, whereas bound dye was solubilized with 10 mM unbuffered TRIS (Avantor Performance Materials, Gliwice, Poland) solution. The entire procedure was performed using a BioTek EL-406 washing station (BioTek Instruments, USA). After additional 30 min, absorbance was read using a Biotek Hybrid H4 reader (BioTek Instruments, USA) at 540 nm wavelength. MTT assay was used alternatively for HL-60 cell line and in the experiment in which estrogens are added (specified in the table legend). Absorbance was measured using a Biotek Hybrid H4 reader at 570 nm wavelength for MTT assay.
(§2) Compounds at each concentration were tested in triplicate in a single experiment and each experiment was repeated at least three times independently.
(§3) Results of in vitro antiproliferative effects are shown in Table 3 and Table 4 and are presented as mean IC50 ± SD calculated using the Prolab-3 system based on Cheburator 0.4 software.

MCF-7 [2] = experiment: as above; format: cell-based, human; details: 72-hour exposition; for IC50 [µg/ml] MCF-7 hypoxia: hypoxia (<1% of oxygen); for IC50 [µg/ml] MCF-7 normal: normal (21% of oxygen)
Method: as §1, §2, §3

HT-29 [3] = experiment: Sulforhodamine B antiproliferative assay, 72 h; format: cell-based, human; details: normal (21% of oxygen), 72-hour exposition
Method: as §1, §2, §3

Caco-2 = experiment: Sulforhodamine B antiproliferative assay, 72 h; format: cell-based, human; details: normal (21% of oxygen), 72-hour exposition
Method: In the experiment, cells were seeded on 96-well plates (Sarstedt, Germany) in appropriate culture medium at a density of 10^5 cells/mL 24 h before adding the tested compounds. Cells were treated with each compound in four concentrations in the range 0.1-100 ug/mL. […] Briefly, cells were fixed with 50 µL/well of 50% (w/v) trichloroacetic acid (Avantor Performance Materials, Gliwice, Poland). After 1 h incubation, plates were washed several times with tap water and 50 µL of 0.4% (w/v) solution of sulforhodamine B (Sigma-Aldrich, Germany) in 1% (v/v) acetic acid (Avantor Performance Materials, Gliwice, Poland) was added to each well. After 30 min incubation at room temperature, unbound dye was washed out with 1% (v/v) acetic acid, whereas bound dye was solubilized with 10 mM unbuffered TRIS (Avantor Performance Materials, Gliwice, Poland) solution. […] After additional 30 min, absorbance was read using a Biotek Hybrid H4 reader (BioTek Instruments, USA) at 540 nm wavelength.

[4] = system: MCF-7 (human breast adenocarcinoma, estrogen-positive); experiment: MTT antiproliferative assay, 48 h; format: cell-based; details: Homo sapiens, MCF7, 48-hour exposition, read-out: Cytotoxicity, IC50, µM MCF-7
Method: (§4) About 2000-4000 cells per well (depending on line nature) were placed in 96-well plates and after 24 h compounds were added to the wells. Untreated cells were used as a control. The plates were incubated for 48 h, 37° C., 5% CO2. The number of surviving cells was determined using 3-(4,5-dimethylthiazol-2-yl)-2,5-diphenyltetrazolinium bromide (MTT). MTT-test: after incubating culture medium was removed and 200 µL fresh medium with 20 µL MTT (2 mg/mL in HBSS) was added in each well of the plate. After incubation (3 hr., 37° C., 5% CO2), the medium with MTT was removed and 200 µL DMSO were added at once to each sample. The samples were tested at 540 nm on Thermo Scientific Multiskan EX microplate photometer. The half-maximal inhibitory concentration (IC50) of each compound was calculated using Graph Pad Prism® 3.0.

MDA-MB-231 [5] = experiment: MTT antiproliferative assay, 72 h, with or without estradiol; format: cell-based, human; details: for IC50: Homo sapiens, MDA-MB-231, 72 hours exposition, MTT; for Change of antiproliferative activity towards MDA-MB-231 during simultaneous incubation with estradiol: with estradiol versus without
Method: as §1, §2, §3
(§5) Statistical analysis: Unpaired t test. *p<0.05 as compared to appropriate cells not pretreated with estradiol. MTT assay was used for antiproliferative activity assessment.

MCF-7 [6] = experiment: as above; format: cell-based, human; details: for Selectivity index (SI): IC50 of MCF-10A/ IC50 of MCF-7 / IC50: 72 hours exposition; for IC50: Homo sapiens, MCF7, MTT
Method: as §1, §2, §3, §5

HT-29 [7] = experiment: MTT antiproliferative assay, 72 h; format: cell-based; details: Homo sapiens, 72 hours exposition, read-out: IC50 [µg/ml] HT-29 normal
Method: as §1, §2, §3, §5

HL-60 = experiment: MTT antiproliferative assay, 72 h; format: cell-based; details: Homo sapiens, 72 hours exposition, read-out: IC50 [µg/ml] HL-60 normal
Method: as §1, §2, §3, §5

PDI A1 = target: T1, PDI A1 (Homo sapiens, UniProt P07237); experiment: Insulin turbidometric assay, inhibition of PDI A1; format: biochemical; details: insulin reduction, turbidity at 650 nm, 60 min incubation at 37° C.; read-out: Inhibition of PDI A1 (EC 50)
T1 construct: purchased Mybiosource; host or cells: E. coli
Method: The inhibitory effects compounds of invention on activity of PDI A1 was assess based on the insulin turbidometric assay. Enzymatic activity of PDIA1 was confirmed by measuring the turbidity increase at 650 nm due to insulin reduction. The assay mixture was prepared by addition 10 ug/ml PDIA1 (E.coli recombinant protein; Mybiosource), 0.1 mM phosphate buffer (pH7.6), 1 mM EDTA, 0.087 mM DTT and with or without tested compound and was incubated for 60 min, at 37° C. Reaction was started by addition insulin and DTT. Final concentration of insulin and DTT in assay mixture was 0.15 mM and 0.174 mM, respectively. Turbidity was detected at 650 nm against reference samples without PDI A1s. The measurements were performed at 650 nm using 120-s recordings.

[8] = system: MDA-MB-231 (human mammary breast adenocarcinoma); experiment: MTT antiproliferative assay, 48 h; format: cell-based; details: Homo sapiens, MDA-MB-231, 48-hour exposition, read-out: Cytotoxicity, IC50, µM MDA-MB-231
Method: as §4

[9] = system: Caco-2 (human colon adenocarcinoma); experiment: MTT antiproliferative assay, 48 h; format: cell-based; details: Homo sapiens, Caco-2, 48-hour exposition, read-out: Cytotoxicity, IC50, µM CaCo-2
Method: as §4

[10] = system: HT-1080 (human fibrosarcoma); experiment: MTT antiproliferative assay, 48 h; format: cell-based; details: 48-hour exposition, read-out: Cytotoxicity, IC50, µM HT-1080
Method: as §4

[11] = 200 nM estradiol, read-out: IC50 [µg/ml] MDA-MB-231 + estradiol
[12] = not pretreated with estradiol, read-out: IC50 [µg/ml] MDA-MB-231 normal
[13] = 200 nM estradiol, read-out: IC50 [µg/ml] MCF-7 + estradiol
[14] = not pretreated with estradiol, read-out: IC50 [µg/ml] MCF-7 normal

T1 sequence (P07237 18-508, species assumed): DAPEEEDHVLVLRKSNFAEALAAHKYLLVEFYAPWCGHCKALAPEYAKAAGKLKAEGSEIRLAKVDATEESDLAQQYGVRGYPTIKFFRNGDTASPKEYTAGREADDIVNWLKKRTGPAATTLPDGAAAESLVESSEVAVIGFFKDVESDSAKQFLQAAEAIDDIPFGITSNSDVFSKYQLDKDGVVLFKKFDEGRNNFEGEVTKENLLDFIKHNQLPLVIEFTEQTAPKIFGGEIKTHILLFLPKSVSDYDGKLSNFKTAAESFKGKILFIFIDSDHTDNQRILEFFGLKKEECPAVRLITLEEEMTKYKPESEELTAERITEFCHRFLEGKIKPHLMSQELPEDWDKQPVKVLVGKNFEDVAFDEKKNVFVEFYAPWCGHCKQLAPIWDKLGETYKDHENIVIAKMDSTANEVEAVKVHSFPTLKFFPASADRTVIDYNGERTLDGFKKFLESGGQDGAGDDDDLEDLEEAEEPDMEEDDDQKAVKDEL

| SMILES | IC50 [µg/ml] MDA-MB-231 hypoxia (MDA-MB-231 [1]) [µg/mL] | IC50 [µg/ml] MDA-MB-231 normal (MDA-MB-231 [1]) [µg/mL] | IC50 [µg/ml] MCF-7 hypoxia (MCF-7 [2]) [µg/mL] | IC50 [µg/ml] MCF-7 normal (MCF-7 [2]) [µg/mL] | IC50 [µg/ml] HT-29 normal (HT-29 [3]) [µg/mL] | IC50 [µg/ml] Caco-2 normal (Caco-2) [µg/mL] | IC50 [4] [µM] | IC50 (MDA-MB-231 [5]; [11]) [µg/mL] | IC50 (MDA-MB-231 [5]; [12]) [µg/mL] | Change of antiproliferative activity towards MDA-MB-231 during simultaneous incubation with estradiol (MDA-MB-231 [5]) | Selectivity index (SI): IC50 of MCF-10A/ IC50 of MCF-7 (MCF-7 [6]) | IC50 (MCF-7 [6]; [13]) [µg/mL] | IC50 (MCF-7 [6]; [14]) [µg/mL] | IC50 (HT-29 [7]) [µg/mL] | IC50 (HL-60) [µg/mL] | EC50 (PDI A1) [nM] | IC50 [8] [µM] | IC50 [9] [µM] | IC50 [10] [µM] | Change in sensitivity of MCF-7 after addition of estradiol (MCF-7 [6]; with estradiol versus without) |
| --- | --- | --- | --- | --- | --- | --- | --- | --- | --- | --- | --- | --- | --- | --- | --- | --- | --- | --- | --- | --- |
| COc1ccc(N2C(=O)/C(=C\c3ccc([N+](=O)[O-])s3)SC2=S)cc1 [CCF642, reference compound] | 0.3 ± 0.2 (≈ 0.793 µM) | 0.3 ± 0.1 (≈ 0.793 µM) | 0.6 ± 0.6 (≈ 1.59 µM) | 0.7 ± 0.5 (≈ 1.85 µM) | 0.4 ± 0.05 (≈ 1.06 µM) | 0.4 ± 0.1 (≈ 1.06 µM) |  |  |  |  |  |  |  |  |  |  |  |  |  |  |
| CCCCCCc1ccc(S(=O)(=O)N2CC2C(=O)OC)cc1 (centres unmarked) [Compound C-3287, Methyl 1-(4-hexylphenyl)sulfonylaziridine-2-carboxylate] |  |  |  |  |  |  | 123 ± 17 | 23.8 ± 2.3 | 6.4 ± 0.8 (≈ 19.7 µM) | slight decrease of antiproliferative activity | 1.10 | 29.3 ± 4.1 | 31.3 ± 0.6 (≈ 96.2 µM) | 31.5 ± 4.9 (≈ 96.8 µM) | 0.5 ± 0.3 (≈ 1.54 µM) | 50 |  |  |  |  |
| COC(=O)C1CN1S(=O)(=O)c1cccc2c(N(C)C)cccc12 (centres unmarked) [Compound C-3326, Methyl 1-[[5-(dimethylamino)-1-naphthyl]sulfonyl]aziridine-2-carboaylate] |  |  |  |  |  |  | 349 ± 13 | 17.7 ± 2.1 | 15.7 ± 3.1 (≈ 47 µM) |  | 4.84 | 10.4 ± 2.4 | 5.4 ± 1.7 (≈ 16.1 µM) | 39.2 ± 6.5 (≈ 117 µM) | 1.9 ± 0.6 (≈ 5.68 µM) |  | 169 ± 20 | 170 ± 20 | 100 ± 5 | slight decrease in sensitivity |
| COC(=O)C1CN1S(=O)(=O)c1ccc(F)cc1F (centres unmarked) [Compound C-3353, Methyl 1-(2,4-difluorophenyl)sulfonylaziridine-2-carboxylate] |  |  |  |  |  |  |  | 25.7 ± 1.9 | 24.2 ± 2.6 (≈ 87.3 µM) |  | 3.36 | 5.8 ± 1.3 | 6.2 ± 1.8 (≈ 22.4 µM) | 35.9 ± 1.3 (≈ 129 µM) | 2 ± 0.1 (≈ 7.21 µM) | 5000 |  |  |  |  |
| CCCCCCc1ccc(S(=O)(=O)N2CC2C(=O)NC)cc1 (centres unmarked) [Compound C-3380, 1-(4-Hexylphenyl)sulfonyl-N-methyl-aziridine-2-carboxamide] |  |  |  |  |  |  |  | 26.3 ± 2.5 | 26.1 ± 1 (≈ 80.4 µM) |  | 0.75 | 26.3 ± 4.3 | 25.5 ± 2.3 (≈ 78.6 µM) | 34.6 ± 2.2 (≈ 107 µM) | 5.3 ± 2.8 (≈ 16.3 µM) |  |  |  |  |  |
| CCCCCCc1ccc(S(=O)(=O)N2CC2C(N)=O)cc1 (centres unmarked) [Compound C-3389, 1-(4-Hexylphenyl)sulfonylaziridine-2-carboxamide] |  |  |  |  |  |  | 47 ± 6 | 28 ± 1.7 | 23.2 ± 1 (≈ 74.7 µM) | slight decrease of antiproliferative activity | 0.23 | 18.4 ± 4.3 | 26.7 ± 4.5 (≈ 86 µM) | 31.2 ± 6.7 (≈ 101 µM) | 2.8 ± 0.8 (≈ 9.02 µM) | 30 | 32 ± 3 | 49 ± 2 | 36 ± 3 |  |
| O=C(C1CC1)N1CCN(Cn2sc3ccccc3c2=O)CC1 [LOC14, reference compound] | 2.6 ± 0.5 (≈ 8.19 µM) | 2.8 ± 0.4 (≈ 8.82 µM) | 3.9 ± 0.3 (≈ 12.3 µM) | 4.4 ± 0.9 (≈ 13.9 µM) | 12.6 ± 8.4 (≈ 39.7 µM) | 9.1 ± 3.4 (≈ 28.7 µM) |  |  |  |  |  |  |  |  |  |  |  |  |  |  |

— patent US20230039836A1, “AROMATIC SULPHONAMIDES DERIVATIVES THAT INHIBITS PDI A3, THEIR SYNTHESIS AND USE” (Uniwersytet Jagiellonski, priority 2020, published 2023)
